A compilation of properties of binary mixtures (doi:10.1016/j.jct.2020.106150)

Assay: xn = mol fraction of the nth substance listed
Conditions: 100 kPa

O=Cc1ccco1 + CCCC[P+](C)(CCCC)CCCC.COS(=O)(=O)[O-]
Conditions | speed of sound [m/s] | viscosity [mPa·s]
293.15 K, x2 = 0 | 1459.1 | 1.62
293.15 K, x2 = 0.062 | 1482.3 | 2.5
293.15 K, x2 = 0.142 | 1505.9 | 21.3
293.15 K, x2 = 0.249 | 1527 | 65
293.15 K, x2 = 0.317 | 1541.2 | 95
293.15 K, x2 = 0.399 | 1556.3 | 134
293.15 K, x2 = 0.499 | 1563.9 | 190
293.15 K, x2 = 0.732 | 1568.5 | 400
293.15 K, x2 = 0.823 | 1566.1 | 500
293.15 K, x2 = 0.863 | 1565.4 | 560
293.15 K, x2 = 0.91 | 1563.4 | 610
293.15 K, x2 = 0.951 | 1563.1 | 660
298.15 K, x2 = 0 | 1440.2 | 1.48
298.15 K, x2 = 0.142 | 1489.6 | 10.1
298.15 K, x2 = 0.191 | 1499.2 | 17.1
298.15 K, x2 = 0.249 | 1511.1 | 31
298.15 K, x2 = 0.317 | 1525.5 | 47
298.15 K, x2 = 0.399 | 1540.4 | 72
298.15 K, x2 = 0.499 | 1548.6 | 101
298.15 K, x2 = 0.624 | 1555.2 | 160
298.15 K, x2 = 0.732 | 1552.5 | 270
298.15 K, x2 = 0.823 | 1550.2 | 350
298.15 K, x2 = 0.863 | 1549.3 | 390
298.15 K, x2 = 0.91 | 1547.2 | 440
298.15 K, x2 = 0.951 | 1546.2 | 480
303.15 K, x2 = 0 | 1422 | 1.36
303.15 K, x2 = 0.062 | 1454.5 | 2.14
303.15 K, x2 = 0.1 | 1463 | 3.1
303.15 K, x2 = 0.142 | 1472.1 | 4.1
303.15 K, x2 = 0.249 | 1493.1 | 8.7
303.15 K, x2 = 0.317 | 1508.5 | 25
303.15 K, x2 = 0.399 | 1524.3 | 40
303.15 K, x2 = 0.499 | 1534.6 | 55
303.15 K, x2 = 0.624 | 1539.8 | 93
303.15 K, x2 = 0.823 | 1533.5 | 260
303.15 K, x2 = 0.863 | 1532.5 | 290
303.15 K, x2 = 0.91 | 1531.2 | 320
303.15 K, x2 = 0.951 | 1530.1 | 350
308.15 K, x2 = 0 | 1403.8 | 1.26
308.15 K, x2 = 0.062 | 1434 | 1.99
308.15 K, x2 = 0.1 | 1443.5 | 3
308.15 K, x2 = 0.191 | 1466.5 | 5.6
308.15 K, x2 = 0.249 | 1476.3 | 7.7
308.15 K, x2 = 0.399 | 1508.3 | 20.4
308.15 K, x2 = 0.499 | 1515.9 | 34
308.15 K, x2 = 0.732 | 1521.5 | 133
308.15 K, x2 = 0.823 | 1519.8 | 194
308.15 K, x2 = 0.863 | 1517.1 | 217
308.15 K, x2 = 0.91 | 1516.5 | 241
308.15 K, x2 = 0.951 | 1515.5 | 270
313.15 K, x2 = 0.062 | 1418.8 | 1.76
313.15 K, x2 = 0.142 | 1438.3 | 3.6
313.15 K, x2 = 0.191 | 1449 | 5.6
313.15 K, x2 = 0.249 | 1459.5 | 6.7
313.15 K, x2 = 0.317 | 1475.5 | 8.8
313.15 K, x2 = 0.399 | 1492.4 | 11.5
313.15 K, x2 = 0.499 | 1501.5 | 17.9
313.15 K, x2 = 0.624 | 1509.5 | 43
313.15 K, x2 = 0.732 | 1505.7 | 101
313.15 K, x2 = 0.823 | 1504.6 | 146
313.15 K, x2 = 0.863 | 1502.3 | 165
313.15 K, x2 = 0.91 | 1500.7 | 185
313.15 K, x2 = 0.951 | 1500.5 | 201
318.15 K, x2 = 0 | 1367.8 | 1.09
318.15 K, x2 = 0.1 | 1410.1 | 2.5
318.15 K, x2 = 0.191 | 1431.3 | 4.3
318.15 K, x2 = 0.317 | 1457.6 | 7
318.15 K, x2 = 0.399 | 1476.4 | 9.9
318.15 K, x2 = 0.624 | 1494.6 | 32
318.15 K, x2 = 0.732 | 1493.4 | 81
318.15 K, x2 = 0.823 | 1489.6 | 116
318.15 K, x2 = 0.863 | 1488.6 | 130
318.15 K, x2 = 0.91 | 1488.2 | 144
318.15 K, x2 = 0.951 | 1486.5 | 158
323.15 K, x2 = 0 | 1349.9 | 1.02
323.15 K, x2 = 0.062 | 1386 | 1.53
323.15 K, x2 = 0.1 | 1394.5 | 2.3
323.15 K, x2 = 0.142 | 1402.1 | 3.3
323.15 K, x2 = 0.317 | 1443.6 | 6
323.15 K, x2 = 0.399 | 1460.6 | 8.6
323.15 K, x2 = 0.499 | 1469.8 | 18.6
323.15 K, x2 = 0.624 | 1479.9 | 27
323.15 K, x2 = 0.732 | 1479.9 | 73
323.15 K, x2 = 0.823 | 1478.2 | 99
323.15 K, x2 = 0.863 | 1477.2 | 110
323.15 K, x2 = 0.91 | 1476.1 | 117
323.15 K, x2 = 0.951 | 1474.6 | 126

CCCC[P+](C)(CCCC)CCCC.COS(=O)(=O)[O-] + O=Cc1ccco1
x1 = 1
Conditions | speed of sound [m/s] | viscosity [mPa·s]
293.15 K | 1563.7 | 730
298.15 K | 1546.1 | 520
303.15 K | 1529.7 | 380
308.15 K | 1514.3 | 290
313.15 K | 1499.2 | 217
318.15 K | 1485.7 | 169
323.15 K | 1472.1 | 133
